PubChem BioAssay AID256 (DTP/NCI, 2004)
Where “and” joins values, the source holds several entries; their conditions need not be identical. Identical values can stand only once. Toxic doses and inconclusive results are not listed. The calls were made as follows: active = survival T/C of 150% or more; inactive = T/C below 125% in these data.

Test system: CD2F1 mice, L1210 leukemia ip, survival T/C
Assay: NCI In Vivo Anticancer Drug Screen. Data for tumor model L1210 Leukemia (intraperitoneal) in CD2F1 (CDF1) mice
Conditions: higher = longer survival
Method in brief: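 Implant tumor; dose compound or vehicle; measure endpoint in both groups; report treated divided by control.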

[1] = endpoint: mean survival time, dose: 100.0 mg/kg/injection, schedule: Q04DX003 (ip), vehicle: Klucel (hydroxypropylcellulose) (HPC)
[2] = endpoint: mean survival time, dose: 200.0 mg/kg/injection, schedule: Q04DX003 (ip), vehicle: Klucel (hydroxypropylcellulose) (HPC)
[3] = endpoint: mean survival time, dose: 100.0 mg/kg/injection, schedule: Q04DX003 (ip), vehicle: saline with Tween-80
[4] = endpoint: mean survival time, dose: 200.0 mg/kg/injection, schedule: Q04DX003 (ip), vehicle: saline with Tween-80
[5] = endpoint: mean survival time, dose: 400.0 mg/kg/injection, schedule: Q04DX003 (ip), vehicle: saline with Tween-80
[6] = endpoint: mean survival time, dose: 100.0 mg/kg/injection, schedule: Q04DX002 (ip), vehicle: saline with Tween-80
[7] = endpoint: mean survival time, dose: 25.0 mg/kg/injection, schedule: Q01DX009 (ip), vehicle: saline with Tween-80
[8] = endpoint: mean survival time, dose: 50.0 mg/kg/injection, schedule: Q01DX009 (ip), vehicle: saline with Tween-80
[9] = endpoint: mean survival time, dose: 100.0 mg/kg/injection, schedule: Q01DX009 (ip), vehicle: saline with Tween-80
[10] = endpoint: mean survival time, dose: 100.0 mg/kg/injection, schedule: Q04DX003 (ip), vehicle: saline
[11] = endpoint: mean survival time, dose: 200.0 mg/kg/injection, schedule: Q04DX003 (ip), vehicle: saline
[12] = endpoint: mean survival time, dose: 400.0 mg/kg/injection, schedule: Q04DX003 (ip), vehicle: saline
[13] = endpoint: mean survival time, dose: 100.0 mg/kg/injection, schedule: Q01DX005 (ip), vehicle: saline
[14] = endpoint: mean survival time, dose: 200.0 mg/kg/injection, schedule: Q01DX005 (ip), vehicle: saline
[15] = endpoint: mean survival time, dose: 12.5 mg/kg/injection, schedule: Q01DX009 (ip), vehicle: other

Measured: T/C

C=CC[N+]12CC=C3COC(=O)C(C)(O)C(C)(O)C(C)C(=O)OC(CC1)C32 (stereo not drawn)
inactive: [1] 101 % of control | [2] 90 % of control | endpoint: mean survival time, dose: 400.0 mg/kg/injection, schedule: Q04DX003 (ip), vehicle: Klucel (hydroxypropylcellulose) (HPC) 93 % of control

CC(=O)OCC1OC(OC(C)=O)C(NC(=S)N(C)N=O)C(OC(C)=O)C1OC(C)=O (stereo not drawn)
inactive: endpoint: mean survival time, dose: 12.5 mg/kg/injection, schedule: Q04DX002 (ip), vehicle: distilled water + Tween-80 106 % of control | endpoint: mean survival time, dose: 25.0 mg/kg/injection, schedule: Q04DX002 (ip), vehicle: distilled water + Tween-80 103 % of control | endpoint: mean survival time, dose: 50.0 mg/kg/injection, schedule: Q04DX002 (ip), vehicle: distilled water + Tween-80 113 % of control | endpoint: mean survival time, dose: 100.0 mg/kg/injection, schedule: Q04DX002 (ip), vehicle: distilled water + Tween-80 118 % of control and 120 % of control

Nc1cc(Nc2ccc(Cl)cc2)c2nc(-c3ccc(Cl)cc3)c(-c3ccc(Cl)cc3)nc2n1
inactive: [3] 100 % of control | [4] 107 % of control | [5] 107 % of control

CCS/C(SC)=C(/c1ccccc1)[P+](c1ccccc1)(c1ccccc1)c1ccccc1
inactive: endpoint: median survival time, dose: 1.5 mg/kg/injection, schedule: Q01DX009 (ip), vehicle: Klucel (hydroxypropylcellulose) (HPC) 111 % of control | endpoint: median survival time, dose: 3.0 mg/kg/injection, schedule: Q01DX009 (ip), vehicle: Klucel (hydroxypropylcellulose) (HPC) 114 % of control

CCCCCCCCCCCCOP(OCC)OCCCCCCCCCCCC
inactive: endpoint: mean survival time, dose: 25.0 mg/kg/injection, schedule: Q04DX002 (ip), vehicle: saline with Tween-80 104 % of control | endpoint: mean survival time, dose: 50.0 mg/kg/injection, schedule: Q04DX002 (ip), vehicle: saline with Tween-80 101 % of control | [6] 96 % of control and 101 % of control

S=c1nc[nH]c2ccccc12
inactive: endpoint: mean survival time, dose: 100.0 mg/kg/injection, schedule: Q01DX001 (ip), vehicle: saline with Tween-80 93 % of control | [6] 91 % of control and 105 % of control | [3] 95 % of control and 97 % of control | endpoint: mean survival time, dose: 200.0 mg/kg/injection, schedule: Q01DX001 (ip), vehicle: saline with Tween-80 94 % of control | endpoint: mean survival time, dose: 200.0 mg/kg/injection, schedule: Q04DX002 (ip), vehicle: saline with Tween-80 94 % of control and 102 % of control | [4] 86 % of control and 90 % of control | endpoint: mean survival time, dose: 400.0 mg/kg/injection, schedule: Q01DX001 (ip), vehicle: saline with Tween-80 88 % of control | endpoint: mean survival time, dose: 400.0 mg/kg/injection, schedule: Q04DX002 (ip), vehicle: saline with Tween-80 91 % of control and 98 % of control

CC(=N\O)/C(C)=N/O.CC(=N\O)/C(C)=N/O.O.[CH3-].[Co]
inactive: endpoint: mean survival time, dose: 25.0 mg/kg/injection, schedule: Q04DX003 (ip), vehicle: Klucel (hydroxypropylcellulose) (HPC) 95 % of control | endpoint: mean survival time, dose: 50.0 mg/kg/injection, schedule: Q04DX003 (ip), vehicle: Klucel (hydroxypropylcellulose) (HPC) 95 % of control

CCOC(=O)Nc1nccs1
inactive: [7] 98 % of control | [8] 100 % of control | [9] 98 % of control | [1] 101 % of control | [2] 97 % of control

CCCCC(CC)C(=O)[O][Pb]([CH3])([CH3])[CH3] (stereo not drawn)
inactive: endpoint: mean survival time, dose: 5.0 mg/kg/injection, schedule: Q04DX003 (ip), vehicle: saline with Tween-80 97 % of control | endpoint: mean survival time, dose: 10.0 mg/kg/injection, schedule: Q04DX003 (ip), vehicle: saline with Tween-80 98 % of control

CC1(C)C(C2CCCC[N+]2=O)CS1(=O)=O (stereo not drawn)
inactive: endpoint: mean survival time, dose: 100.0 mg/kg/injection, schedule: Q01DX001 (ip), vehicle: saline 100 % of control | [10] 101 % of control | endpoint: mean survival time, dose: 200.0 mg/kg/injection, schedule: Q01DX001 (ip), vehicle: saline 100 % of control | [11] 103 % of control | endpoint: mean survival time, dose: 400.0 mg/kg/injection, schedule: Q01DX001 (ip), vehicle: saline 96 % of control | [12] 105 % of control

C=CCCCCCCCCC(=O)NCC1CC1
inactive: [9] 94 % of control | endpoint: mean survival time, dose: 200.0 mg/kg/injection, schedule: Q01DX009 (ip), vehicle: saline with Tween-80 100 % of control | endpoint: mean survival time, dose: 400.0 mg/kg/injection, schedule: Q01DX009 (ip), vehicle: saline with Tween-80 86 % of control

CCc1nc2c(=O)n(C3OC(CO)C(O)C3O)cnc2o1 (stereo not drawn)
inactive: [13] 100 % of control | [14] 101 % of control

NC(CS/C=C\C(=O)O)C(=O)O (stereo not drawn)
inactive: [3] 101 % of control | [5] 93 % of control

COc1ccccc1-n1c(C)nc2c(cnn2C2OC(CO)C(O)C2O)c1=O (stereo not drawn)
inactive: endpoint: mean survival time, dose: 12.5 mg/kg/injection, schedule: Q01DX005 (ip), vehicle: saline 107 % of control | endpoint: mean survival time, dose: 25.0 mg/kg/injection, schedule: Q01DX005 (ip), vehicle: saline 101 % of control | endpoint: mean survival time, dose: 50.0 mg/kg/injection, schedule: Q01DX005 (ip), vehicle: saline 101 % of control | [13] 98 % of control | [14] 101 % of control

COc1cccc(NC(=O)NC2C(OC(C)=O)OC(COC(C)=O)C(OC(C)=O)C2OC(C)=O)c1 (stereo not drawn)
inactive: [15] 98 % of control | endpoint: mean survival time, dose: 25.0 mg/kg/injection, schedule: Q01DX009 (ip), vehicle: other 98 % of control | endpoint: mean survival time, dose: 50.0 mg/kg/injection, schedule: Q01DX009 (ip), vehicle: other 90 % of control | endpoint: mean survival time, dose: 100.0 mg/kg/injection, schedule: Q01DX009 (ip), vehicle: other 90 % of control | endpoint: mean survival time, dose: 200.0 mg/kg/injection, schedule: Q01DX009 (ip), vehicle: other 96 % of control

[C-]#[O+].[C-]#[O+].[C-]#[O+].[C-]#[O+].[CH3][Sn]([CH3])[CH3].[Co]
inactive: endpoint: mean survival time, dose: 0.02 mg/kg/injection, schedule: Q01DX009 (ip), vehicle: saline 100 % of control | endpoint: mean survival time, dose: 0.04 mg/kg/injection, schedule: Q01DX009 (ip), vehicle: saline 102 % of control | endpoint: mean survival time, dose: 0.09 mg/kg/injection, schedule: Q01DX009 (ip), vehicle: saline 100 % of control and 105 % of control | endpoint: mean survival time, dose: 0.39 mg/kg/injection, schedule: Q01DX009 (ip), vehicle: saline 86 % of control | endpoint: mean survival time, dose: 0.78 mg/kg/injection, schedule: Q01DX009 (ip), vehicle: saline 107 % of control

CCCCCCCCC(C(O)c1ccccc1)C(O)(C(F)(F)F)C(F)(F)F (stereo not drawn)
inactive: [3] 98 % of control | [4] 102 % of control | [5] 104 % of control

Brc1ccc2[nH]c3c(c2c1)CSc1ccccc1-3
inactive: endpoint: mean survival time, dose: 100.0 mg/kg/injection, schedule: Q01DX009 (ip), vehicle: Klucel (hydroxypropylcellulose) (HPC) 104 % of control | endpoint: mean survival time, dose: 200.0 mg/kg/injection, schedule: Q01DX009 (ip), vehicle: Klucel (hydroxypropylcellulose) (HPC) 108 % of control | endpoint: mean survival time, dose: 400.0 mg/kg/injection, schedule: Q01DX009 (ip), vehicle: Klucel (hydroxypropylcellulose) (HPC) 112 % of control

CC(C)(CO)COS(=O)(=O)c1ccc(Br)cc1
inactive: endpoint: mean survival time, dose: 12.5 mg/kg/injection, schedule: Q01DX009 (ip), vehicle: saline with Tween-80 95 % of control | [7] 95 % of control | [8] 95 % of control

NC(=O)NN=C1CCC(CC2CCCCC2)CC1 (stereo not drawn)
inactive: [3] 112 % of control

COc1c(/C=C/CO)cc2c(c1OC)OCO2
inactive: [3] 95 % of control | [4] 102 % of control | [5] 102 % of control

Cc1cc(N(C)C)c(C(C)C)cc1O (tested in a mixture with another compound)
inactive: endpoint: mean survival time, dose: 32.0 micrograms/kg/injection, schedule: Q04DX003 (ip), vehicle: saline 104 % of control | endpoint: mean survival time, dose: 63.0 micrograms/kg/injection, schedule: Q01DX001 (ip), vehicle: saline 112 % of control | endpoint: mean survival time, dose: 63.0 micrograms/kg/injection, schedule: Q04DX003 (ip), vehicle: saline 98 % of control | endpoint: mean survival time, dose: 125.0 micrograms/kg/injection, schedule: Q01DX001 (ip), vehicle: saline 112 % of control | endpoint: mean survival time, dose: 125.0 micrograms/kg/injection, schedule: Q04DX003 (ip), vehicle: saline 101 % of control

c1ccc(-c2nnnn2-c2ccccc2)cc1
inactive: [10] 101 % of control | [11] 98 % of control | [12] 104 % of control

NC(=S)N/N=C/c1ccc(OC(F)(F)F)cn1
inactive: endpoint: mean survival time, dose: 1.56 mg/kg/injection, schedule: Q01DX009 (ip), vehicle: other 104 % of control | endpoint: mean survival time, dose: 3.13 mg/kg/injection, schedule: Q01DX009 (ip), vehicle: other 100 % of control | endpoint: mean survival time, dose: 6.25 mg/kg/injection, schedule: Q01DX009 (ip), vehicle: other 108 % of control | [15] 118 % of control | endpoint: mean survival time, dose: 25.0 mg/kg/injection, schedule: Q04DX002 (ip), vehicle: other 89 % of control | endpoint: mean survival time, dose: 50.0 mg/kg/injection, schedule: Q04DX002 (ip), vehicle: other 104 % of control | endpoint: mean survival time, dose: 100.0 mg/kg/injection, schedule: Q04DX002 (ip), vehicle: other 115 % of control
